US6426329B1, “Immunosuppressant activity of insulin-like growth factor I (IGF-I)” (Fujisawa Pharmaceutical Co., Ltd., priority 1997, dated 2002)

Key:
IGF-I = IGF-I producing action of FK506 (liver and blood IGF-I by rat IGF-I RIA kit after 7 days oral dosing); assay type: in vivo; conditions: male SD rats; for increase of blood concentration of IGF-I / increase of concentration of IGF-I in the liver: 0.5 hour after final dose
Description: Male SD rats aged 6 weeks were orally dosed with FK506 once daily for 7 consecutive days, and at 0.5 hour following the final dose, the liver and blood were isolated. The blood IGF-I concentration was measured by acid-ethanol extraction and subsequent assay with a rat IGF-I RIA kit (DSL). The hepatic IGF-I level was measured by acetic acid extraction and subsequent assay with the rat IGF-I RIA kit. Five rats per group were used.

Bile secretions [1] = assay: Choleretic action of FK506 and synergistic action of IGF-I (bile secretion in bile duct-cannulated anesthetized rats); assay type: in vivo, rat; conditions: for effect on choleresis (in words): summary of Table 2 data, IGF-I in combination with FK506
Description: Using male SD rats (6 weeks old) under urethane anesthesia (1.2 g/5 ml/kg), a midline incision was made in the abdominal region. Ligation was performed at the lower part of the common bile duct and a polyethylene tube (PE10, Intramedics) was inserted from above and ligated in position. The bile was thus withdrawn extracorporeally and pooled. The rat was kept warm on a hot plate at 37° C. and the volume of the bile withdrawn-was measured at 30-min intervals. […] As to FK506, FK506 Inj. (1P mg/1 ml vial) was used. Rats in the control group received saline both intravenously and subcutaneously. The bile was collected up to 180min after medication. As the baseline secretions, the average of the values at 2 points of time immediately preceding drug administration was used.

Bile secretions [2] = assay: Anticholeretic action of CsA and antagonizing action of IGF-I (bile secretion in bile duct-cannulated anesthetized rats); assay type: in vivo, rat
Description: Using male SD rats (7 weeks old) under urethane anesthesia (1.2 g/5 ml/kg), a midline incision was made in the abdominal region. Ligation was performed at the lower part of the common bile duct and a polyethylene tube (PE10, Intramedics) was inserted from above and ligated in position. The bile was thus withdrawn extracorporeally and pooled. The rat was kept warm on a hot plate at 37° C. and the volume of the bile withdrawn was measured at 30-min intervals. […] (250 mg/5 ml vial) was diluted with saline. Rats in the control group received saline both intravenously and subcutaneously. The bile was collected up to 180 min after drug administration. As the baseline secretions, the average of the values at 2 points of time immediately preceding drug administration was used.

[3] = FK506 1 mg/kg orally once daily for 7 days
[4] = FK506 10 mg/kg orally once daily for 7 days
[5] = Before administration (baseline)
[6] = Before administration (baseline), Mean ± S.E.

C=CC[C@@H]1/C=C(\C)C[C@H](C)C[C@H](OC)[C@H]2O[C@@](O)(C(=O)C(=O)N3CCCC[C@H]3C(=O)O[C@H](/C(C)=C/[C@@H]3CC[C@@H](O)[C@H](OC)C3)[C@H](C)[C@@H](O)CC1=O)[C@H](C)C[C@@H]2OC [FK506, 17-allyl-1,14-dihydroxy-12-[2-(4-hydroxy-3-methoxycyclohexyl)-1-methylvinyl]-23,25-dimethoxy-13,19,21,27-tetramethyl-11,28-dioxa-4-azatricyclo[22.3.1.0^4,9] octacos-18-ene-2,3,10,16-tetraone]
increase of blood concentration of IGF-I (IGF-I; [3]): 14%
increase of concentration of IGF-I in the liver (IGF-I; [3]): 28%
increase of blood concentration of IGF-I (IGF-I; [4]): 11%
increase of concentration of IGF-I in the liver (IGF-I; [4]): 26%
IGF-I producing activity (in words) (IGF-I; liver): express IGF-I producing activity in the liver
effect on choleresis (in words) (Bile secretions [1]): has a choleretic action

IGF-I: insulin-like growth factor I (IGF-I), dissolved in saline, given subcutaneously
Bile secretions, % of preadministration baseline (Bile secretions [2]; 0˜30 min after administration, CsA 10 mg/kg i.v., IGF-I 10 mg/kg s.c.): (109) %
Bile secretions, % of preadministration baseline (Bile secretions [2]; 30˜60 min after administration, CsA 10 mg/kg i.v., IGF-I 10 mg/kg s.c.): (121) %
Bile secretions, % of preadministration baseline (Bile secretions [2]; 60˜90 min after administration, CsA 10 mg/kg i.v., IGF-I 10 mg/kg s.c.): (124) %
Bile secretions, % of preadministration baseline (Bile secretions [2]; 90˜120 min after administration, CsA 10 mg/kg i.v., IGF-I 10 mg/kg s.c.): (118) %
Bile secretions, % of preadministration baseline (Bile secretions [2]; 120˜150 min after administration, CsA 10 mg/kg i.v., IGF-I 10 mg/kg s.c.): (121) %
Bile secretions, % of preadministration baseline (Bile secretions [2]; 150˜180 min after administration, CsA 10 mg/kg i.v., IGF-I 10 mg/kg s.c.): (118) %
Bile secretions, % of preadministration baseline (Bile secretions [2]; [5]): (100) %
Bile secretions (Bile secretions [2]; [6]): 0.33 ± 0.03 ml/30 min
effect on choleresis (in words) (Bile secretions [2]; summary of Table 1 data, IGF-I in combination with CsA): enhances choleresis
Bile secretions, % of preadministration baseline (Bile secretions [1]; 0˜30 min after administration, 10 mg/kg i.v. immunosuppressant, IGF-I 10 mg/kg s.c.): (109) %
Bile secretions, % of preadministration baseline (Bile secretions [1]; 30˜60 min after administration, 10 mg/kg i.v. immunosuppressant, IGF-I 10 mg/kg s.c.): (117) %
Bile secretions, % of preadministration baseline (Bile secretions [1]; 60˜90 min after administration, 10 mg/kg i.v. immunosuppressant, IGF-I 10 mg/kg s.c.): (120) %
Bile secretions, % of preadministration baseline (Bile secretions [1]; 90˜120 min after administration, 10 mg/kg i.v. immunosuppressant, IGF-I 10 mg/kg s.c.): (120) %
Bile secretions, % of preadministration baseline (Bile secretions [1]; 120˜150 min after administration, 10 mg/kg i.v. immunosuppressant, IGF-I 10 mg/kg s.c.): (123) %
Bile secretions, % of preadministration baseline (Bile secretions [1]; 150˜180 min after administration, 10 mg/kg i.v. immunosuppressant, IGF-I 10 mg/kg s.c.): (114) %
Bile secretions, % of preadministration baseline (Bile secretions [1]; [5]): (100) %
Bile secretions (Bile secretions [1]; [6]): 0.35 ± 0.01 ml/30 min
effect on choleresis (in words) (Bile secretions [1]): enhances choleresis
